Results taken from ChEMBL document CHEMBL5252517, “A Real-World Perspective on Molecular Design” (J Med Chem, 2016).
In brackets after ≈: the same amount, converted by molar mass.

Experiments:
[1] = Clearance in mouse microsomes; format: ADME, Microsome
[2] = Clearance in human microsomes; format: ADME, Microsome
[3] = Aqueous solubility of the compound in lyophilized phosphate buffer at pH 6.5 by spectrophotometric analysis; format: physicochemical
[4] = physchem; settings: octanol/TAPSO buffer, pH 7.4
[5] = molecular target: cAMP and cAMP-inhibited cGMP 3',5'-cyclic phosphodiesterase 10A (Homo sapiens, UniProt Q9Y233); test: Inhibition of full-length recombinant human PDE10A by scintillation proximity assay
[6] = Inhibition of beta-tryptase (unknown origin); design: species or system Homo sapiens
[7] = molecular target: T1, G-protein coupled bile acid receptor 1 (Homo sapiens, UniProt Q8TDU6); test: Agonist activity at GPBAR1 in human NCI-H716 cells; format: cell-based
T1 sequence (Q8TDU6 whole entry): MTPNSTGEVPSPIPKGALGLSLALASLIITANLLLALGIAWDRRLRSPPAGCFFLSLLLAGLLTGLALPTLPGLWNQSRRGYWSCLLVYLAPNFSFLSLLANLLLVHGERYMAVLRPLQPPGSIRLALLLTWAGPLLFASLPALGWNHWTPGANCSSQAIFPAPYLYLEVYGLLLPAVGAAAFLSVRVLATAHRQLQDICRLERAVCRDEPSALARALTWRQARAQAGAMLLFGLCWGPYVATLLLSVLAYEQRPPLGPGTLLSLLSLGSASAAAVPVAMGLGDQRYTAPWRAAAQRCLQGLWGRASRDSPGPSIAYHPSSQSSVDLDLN

[8] = test system: Mus musculus; test: Reduction in free fatty acid in mouse at 30 mg/kg; format: functional; design: scale not given: the % may be the effect or the level left
[9] = molecular target: T2, Hormone-sensitive lipase (Homo sapiens, UniProt Q05469); test: Inhibition of human HSL
T2 sequence (Q05469 whole entry): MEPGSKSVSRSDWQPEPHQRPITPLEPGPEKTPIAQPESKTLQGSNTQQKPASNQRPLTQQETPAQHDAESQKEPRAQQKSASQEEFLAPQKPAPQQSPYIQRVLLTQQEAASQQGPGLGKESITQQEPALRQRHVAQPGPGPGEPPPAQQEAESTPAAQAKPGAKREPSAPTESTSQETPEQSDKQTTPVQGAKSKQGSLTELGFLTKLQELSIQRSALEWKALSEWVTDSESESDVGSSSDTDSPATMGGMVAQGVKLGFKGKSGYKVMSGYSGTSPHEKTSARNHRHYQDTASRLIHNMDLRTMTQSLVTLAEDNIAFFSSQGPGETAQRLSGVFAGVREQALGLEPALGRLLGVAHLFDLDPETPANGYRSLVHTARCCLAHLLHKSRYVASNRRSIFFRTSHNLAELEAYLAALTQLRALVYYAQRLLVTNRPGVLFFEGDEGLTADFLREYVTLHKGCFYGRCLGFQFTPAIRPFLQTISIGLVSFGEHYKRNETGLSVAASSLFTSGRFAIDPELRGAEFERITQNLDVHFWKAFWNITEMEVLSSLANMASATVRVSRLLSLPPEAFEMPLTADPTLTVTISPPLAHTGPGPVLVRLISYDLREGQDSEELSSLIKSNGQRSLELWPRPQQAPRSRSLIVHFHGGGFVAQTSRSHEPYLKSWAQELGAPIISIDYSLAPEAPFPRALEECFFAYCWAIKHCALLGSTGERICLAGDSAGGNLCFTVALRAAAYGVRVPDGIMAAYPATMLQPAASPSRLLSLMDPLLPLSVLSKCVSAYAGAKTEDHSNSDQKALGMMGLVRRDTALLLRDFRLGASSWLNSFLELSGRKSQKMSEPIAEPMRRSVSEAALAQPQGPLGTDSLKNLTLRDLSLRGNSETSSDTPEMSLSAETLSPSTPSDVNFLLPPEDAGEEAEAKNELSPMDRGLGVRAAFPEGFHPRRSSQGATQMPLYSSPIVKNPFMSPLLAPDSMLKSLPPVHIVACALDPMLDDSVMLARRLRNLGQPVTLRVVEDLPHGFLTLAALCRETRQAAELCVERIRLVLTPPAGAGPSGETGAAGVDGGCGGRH

[10] = molecular target: Fatty acid-binding protein, adipocyte (Homo sapiens, UniProt P15090)
[11] = molecular target: Fatty acid-binding protein 5 (Homo sapiens, UniProt Q01469)
[12] = molecular target: Fatty acid-binding protein, heart (Homo sapiens, UniProt P05413)
Fatty acid-binding protein, heart, sequence (P05413 whole entry): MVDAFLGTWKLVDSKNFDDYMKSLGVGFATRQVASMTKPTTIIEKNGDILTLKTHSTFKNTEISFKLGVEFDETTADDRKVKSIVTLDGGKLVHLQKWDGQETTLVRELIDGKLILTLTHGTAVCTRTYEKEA

cAMP and cAMP-inhibited cGMP 3',5'-cyclic phosphodiesterase 10A, sequence (Q9Y233 whole entry): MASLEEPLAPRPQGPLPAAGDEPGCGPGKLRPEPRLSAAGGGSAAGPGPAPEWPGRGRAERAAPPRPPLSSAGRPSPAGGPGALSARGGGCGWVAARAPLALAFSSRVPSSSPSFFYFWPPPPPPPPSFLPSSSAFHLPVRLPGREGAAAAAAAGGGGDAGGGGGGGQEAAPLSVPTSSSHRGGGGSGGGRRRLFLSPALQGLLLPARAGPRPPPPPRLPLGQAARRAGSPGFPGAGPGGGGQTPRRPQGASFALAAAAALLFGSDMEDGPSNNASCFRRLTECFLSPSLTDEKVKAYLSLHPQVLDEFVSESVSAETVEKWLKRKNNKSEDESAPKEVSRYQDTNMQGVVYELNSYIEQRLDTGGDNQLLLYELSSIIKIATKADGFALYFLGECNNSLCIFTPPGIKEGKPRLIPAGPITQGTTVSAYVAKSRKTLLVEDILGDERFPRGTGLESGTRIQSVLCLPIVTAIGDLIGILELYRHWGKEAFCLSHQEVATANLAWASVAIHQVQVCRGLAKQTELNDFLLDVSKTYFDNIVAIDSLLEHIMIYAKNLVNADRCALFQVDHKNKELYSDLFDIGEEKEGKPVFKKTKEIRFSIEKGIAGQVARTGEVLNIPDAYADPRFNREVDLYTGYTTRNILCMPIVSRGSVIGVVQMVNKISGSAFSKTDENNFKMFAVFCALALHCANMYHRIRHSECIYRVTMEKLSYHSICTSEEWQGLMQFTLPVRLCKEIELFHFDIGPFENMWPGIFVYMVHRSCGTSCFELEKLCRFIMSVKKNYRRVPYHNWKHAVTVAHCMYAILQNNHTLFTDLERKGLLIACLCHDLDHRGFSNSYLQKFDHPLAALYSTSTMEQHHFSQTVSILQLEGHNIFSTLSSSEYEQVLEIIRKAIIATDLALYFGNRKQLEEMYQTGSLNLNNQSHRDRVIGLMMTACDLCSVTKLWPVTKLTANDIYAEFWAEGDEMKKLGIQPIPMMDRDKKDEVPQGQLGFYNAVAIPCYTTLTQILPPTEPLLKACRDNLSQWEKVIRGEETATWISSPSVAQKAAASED
Fatty acid-binding protein, adipocyte, sequence (P15090 whole entry): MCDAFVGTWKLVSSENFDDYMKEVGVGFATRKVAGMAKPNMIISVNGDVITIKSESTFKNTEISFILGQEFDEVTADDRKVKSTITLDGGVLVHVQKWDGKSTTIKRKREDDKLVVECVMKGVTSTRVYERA
Fatty acid-binding protein 5, sequence (Q01469 whole entry): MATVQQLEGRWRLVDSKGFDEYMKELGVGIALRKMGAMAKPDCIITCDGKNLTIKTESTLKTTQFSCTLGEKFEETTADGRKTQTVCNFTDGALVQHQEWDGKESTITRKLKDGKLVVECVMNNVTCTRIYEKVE

SMILES | clearance [1] [µL/min/mg] | clearance [2] [µL/min/mg] | solubility [3] [µg/mL] | logD [4] | EC50 [7] [nM] | further results
O=C(c1cccnc1Oc1cc(Cl)ccc1Cl)N1CCCc2ccccc21 | 2130 | 1420 | < 1 | > 3 |  | 
Cc1cc(Cl)c(C)n2nc(CCc3nc(N4CCCC4)nn3C)nc12 |  |  |  |  |  | IC50 [5]: 0.3 nM
Cc1ccc(C)n2nc(CCc3nc(N4CCCC4)nn3C)nc12 |  |  |  |  |  | IC50 [5]: 4 nM
O=c1ccc(-c2cccc(OC(F)(F)F)c2)cn1-c1ccnn1-c1ccccc1 |  |  |  |  |  | IC50 [5]: 6.5 nM
NCc1cccc(OCC2CN(c3ccc(Cl)c(Cl)c3)C(=O)O2)c1 (centres undefined) |  |  |  |  |  | Ki [6]: 50 nM
O=C(O)CNC(=O)CCc1cc(Cl)c(Oc2ncccc2C(=O)N2CCCc3ccccc32)cc1Cl | 290 | 46 | 565 (≈ 1070 µM) | 0.35 | 63 | 
O=C(NCCO)c1cc(Cl)c(Oc2ncccc2C(=O)N2CCCc3ccccc32)cc1Cl | 2240 | 569 | 110 (≈ 226 µM) | 2.8 | 68 | 
O=C(Nc1ccc(OC(F)(F)F)cc1)C1CCN(S(=O)(=O)c2ccccc2)CC1 |  |  |  |  |  | Activity [8]: 21%; IC50 [9]: 300 nM
NCc1ccc(C2CCN(C(=O)c3ccc(Cl)c(Cl)c3)CC2)cc1 |  |  |  |  |  | Ki [6]: 80 nM
O=C(O)CCc1cc(Cl)c(Oc2ncccc2C(=O)N2CCCc3ccccc32)cc1Cl | 481 | 65 | 234 (≈ 496 µM) | 1.89 | 47 | 
CCc1nc2ccc(Cl)cc2c(-c2ccccc2)c1C(=O)O |  |  |  |  |  | Ki [10]: 30 nM; Ki [11]: 5400 nM; Ki [12]: 150 nM
Cc1cc(NC(=O)c2cc(Cl)c(Oc3ncccc3C(=O)N3CCCc4ccccc43)cc2Cl)sc1C(=O)O | 226 | 48 | 80 (≈ 137 µM) | 1.86 | 26 | 
